Experimental data: paper PMC6530537, “Efficient development of stable and highly functionalised peptides targeting the CK2α/CK2β protein–protein interaction” (Chemical Science, 2019)
Positions count from the first letter of the chain named.

Assays:
HCT116 cells = experiment: cells; format: cell-based, human; details: 24 h
Procedure: (§1) page 47: 1.5. Biological experimental 1.5.1. […] The experiment was performed in duplicates. 1.5.2. […] 1.5.3. […] 46

U2OS cells [1] = experiment: cells; format: cell-based, human; details: 24 h
Procedure: as §1

[2] = test system: CK2β localisation in U2OS cells; experiment: Immunofluorescence imaging of subcellular localisation of CK2β; format: cell-based, human; details: 30 μM, 15 minute incubation, CK2β antibody
Procedure: (§2) CellCarrier Ultra) in 40 μL of growth medium.
(§3) 1.5.5. Co-localisation experiments […]
(§4) confocal microscope with a 40X water immersion objective. Images were acquired with excitation at […]
(§5) green, red and blue channel respectively.
(§6) The following primary antibodies were used:
(§7) Antibody Organelle stained Supplier and catalogue Working concentration […]
(§8) Calnexin Endoplasmic reticulum Invitrogen, PA5-34665 1:750
(§9) Hoechst nuclei stain was used to a working concentration of 1:5000. […]
(§10) concentration 4%). Cells were fixed for 15 minutes, washed with PBS (3x) and blocked with 3% BSA + 0.1 % […] for 5 minutes. The blocking solution was then removed and 40 μL of the primary antibodies in BSA added. The plate was stored in the dark, at 4 °C overnight. The primary antibodies were washed with PBS (3x) and 40 μL of the secondary antibodies and Hoechst nuclei stain in BSA added. The plate was kept at 4 °C for 1 hour, washed with PBS (3x) and imaged as described above. Images were analysed using Fiji (ImageJ) software.

U2OS cells [3] = experiment: Cell viability / apoptosis assay (CytoTox-Glo), 4 hour treatment; format: cell-based, human; details: after 4 hours
CK2α [4] = target: T1, CK2α (Homo sapiens, UniProt P68400, K74A/K75A/K76A/R21S); experiment: Isothermal titration calorimetry, direct binding to CK2α; details: for Kd: ITC, 25°C, CK2α_KA, Tris 200 mM, NaCl 300 mM, 10% DMSO, single site binding model
T1 construct: CK2α_KA (residues 2 -329) contained four; His6 (N, cleaved yes); made in house; host or cells: Escherichia coli BL21(DE3)
T1 sequence (P68400 2-329 R21S/K74A/K75A/K76A): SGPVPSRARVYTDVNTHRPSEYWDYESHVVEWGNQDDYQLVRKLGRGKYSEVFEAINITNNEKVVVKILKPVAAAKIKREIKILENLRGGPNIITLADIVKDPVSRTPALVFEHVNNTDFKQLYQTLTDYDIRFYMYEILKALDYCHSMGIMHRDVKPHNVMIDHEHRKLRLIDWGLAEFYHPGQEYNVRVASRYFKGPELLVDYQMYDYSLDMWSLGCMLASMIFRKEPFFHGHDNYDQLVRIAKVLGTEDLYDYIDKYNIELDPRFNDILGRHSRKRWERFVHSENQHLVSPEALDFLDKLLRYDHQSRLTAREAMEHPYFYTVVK
Procedure: lysed using a high-pressure homogeniser.
The soluble supernatant was applied on a […]
mM NaCl, 1mM DTT, 1mM EDTA, pH 8.5). 100µL of the precision protease was loaded onto the […]
Pure protein was concentrated to 15 mg/mL and flash frozen in liquid N2. […]
1.4.3. Isothermal Calorimetry Titration
1.4.3.1. Direct binding assay
DMSO) and concentrated to 20-50 μM. Compounds in 100× stock solutions were diluted into the […]
Control titrations were performed, and the […]

U2OS and HCT116 cells = details: proliferation, growth rate, viability (Fig. S5-S7)
Procedure: All cell lines used were supplied by AstraZeneca cell bank as mycoplasma free. U2OS bone
osteosarcoma and HCT116 colon carcinoma cells were maintained in RPMI -1640 (1x, Sigma Aldrich,
R0883) supplemented with 2 mM L-glutamine (Gibco, 25030-149) and fetal bovine serum (FBS, Gibco
Life Technologies, 10270-106) at a final concentration of 10%, hereafter known as growth medium. All
cells were grown at 37°C/5% CO2 in a humidified environment and all the assays were performed
using these culturing conditions.
HCT116 cells were seeded at 2000 cells per well into two flat-bottomed 384-well plates (PerkinElmer
CellCarrier Ultra) in 40 μL of growth medium. After 24 hours, the peptides dissolved in DMSO (10 mM)
were added to the cells (to final concentrations of 100, 75, 50, 32, 25, 16, 10, 7.7, 5, 3.2, 0 μM) using
HP Tecan dispenser and DMSO normalised to a final concentration of 1% (v/v). Cells were then
incubated in the presence of the compounds for 4 days and the rate of growth monitored with
IncuCyte Zoom (plate day 4). […]
inhibition was calculated relative to DMSO controls, normalised against day 0 and GI50 values were
calculated using Graphpad Prism. […]
minutes at room temperature, luminescence was read on a multimode plate reader (EnVision, […]
dead cells was measured. […]
calculated by subtracting the luminescent signal resulting from experimental cell death from total
luminescence death. […]

CK2α/β holoenzyme = target: T2, CK2α/β holoenzyme (Homo sapiens, UniProt P68400); experiment: ADP-Glo kinase assay, CK2β-dependent substrate eIF2β, pre-formed CK2α/β complex; format: biochemical; details: 50 nM CK2α_WT + 50 nM CK2β_WT pre-formed, 25 μM ATP, 50 μM eIF2β peptide, 25 °C, 120 min, at least three independent repeats, read-out: IC50, inhibition of phosphorylation of the CK2β-dependent substrate eIF2β
T2 construct: CK2α_WT was used (residues 2-329); His6 (N, cleaved yes); made in house; host or cells: Escherichia coli BL21(DE3)
T2 sequence (P68400 2-329): T1 sequence (P68400 2-329 R21S/K74A/K75A/K76A) with S20R, A73K, A74K, A75K
Procedure: (§11) We then wanted to investigate whether the peptides would be able to inhibit the binding of the β subunit to the α subunit. To this end, the binding affinity of the regulatory β subunit for the catalytic domain was determined via ITC (Kd 9 nM). This was then repeated in the presence of 100 μM P1-C4 and P2-C4 (ESI, Table S4 ^†). […] As one of the key roles of CK2β is to recruit substrates to the kinase, the effect of PPI inhibition on substrate phosphorylation was studied using CK2β dependent and independent substrates. […] It should be noted that the kinase assay was performed using the pre-formed CK2α/β complex as the ability of CK2α to phosphorylate eIF2β requires the presence of the CK2β subunit.
(§12) The kinase assays were performed using the ADP-Glo™ kinase assay kit (Promega). 50 nM CK2α_WT was incubated in the kinase reaction buffer (40 mM Tris pH 7.5, 200 mM NaCl, 20 mM MgCl2, 0.1 mg/mL BSA, 25 μM ATP, 50 μM substrate peptide (RRRADDSDDDD, Enzo Life Sciences […]
(§13) Inc. or eIF2β peptide […]), 5% (v/v) DMSO) in the presence of different concentrations of the inhibitor at 25 °C for 120 min. […] The luminescence was recorded using a PHERAstar FS plate reader (BMG LABTECH) with an integration time of 1 sec.
(§14) Percentage inhibition was calculated relative to a DMSO control after subtraction of the measurement for basal ATPase activity in the absence of substrate. […]

CK2α [5] = target: T3, CK2α (Homo sapiens, UniProt P68400); experiment: ADP-Glo kinase assay, β-independent substrate peptide RRRADDSDDDD; format: biochemical; details: 50 nM CK2α_WT, 25 μM ATP, 50 μM substrate, 25 °C, 120 min
T3 construct: CK2α_WT was used (residues 2-329); His6 (N, cleaved yes); made in house; host or cells: Escherichia coli BL21(DE3)
T3 sequence (P68400 2-329): T1 sequence (P68400 2-329 R21S/K74A/K75A/K76A) with S20R, A73K, A74K, A75K
Procedure: as §11, §12, §13, §14

CK2α/CK2β interaction = target: T4, CK2α/CK2β interaction (Homo sapiens, UniProt P68400); experiment: ITC competition assay: CK2β binding to CK2α alone and in the presence of peptide; details: 25°C, 100 μM peptide, preliminary assay
T4 construct: CK2α_WT was used (residues 2-329); His6 (N, cleaved yes); made in house; host or cells: Escherichia coli BL21(DE3)
T4 sequence (P68400 2-329): T1 sequence (P68400 2-329 R21S/K74A/K75A/K76A) with S20R, A73K, A74K, A75K
Procedure: as §11
1.4.3.2. Competition assay […]
concentrated to 4-6 μM. CK2β (9.3 mg/mL, 20 mM Tris pH 8.5, 500 mM NaCl) was diluted in Tris buffer (200 mM, NaCl, 300 mM, 10% DMSO) and concentrated to 40 μM. In a typical experiment, […]
performed at 150 second intervals. The syringe was loaded with CK2β and rotated at 750 rpm. The same experiment was repeated in the presence of the peptide s: compounds at 1 mM in DMSO were added to the solutions of CK2α and CK2β (prepared as described above) to a final concentration of […]
binding model using Origin software. […]
(CK2β-RAD) 200s, baseline 120s (assay buffer), control loading 200s (RAD), baseline 150s (assay buffer), ligand binding (association) 400s (CK2α K74A and CAM7117) and ligand dissociation 600s (assay buffer), followed by regeneration and next cycles. […]
GraphPad. The results are the average of 4 repeats and error shown as SEM.
Figure S10- Sensorgrams of the BLI competition experiments to assess the ability of P2-C4 to […] the CK2α/CK2β-RAD complex. a) Concentration of peptide ranging from 10 to 0.025 μM and 0 μM. b) Concentration of peptide ranging from 10 to 5 nM and 0 nM.
(1 picture or pasted object on this page, not shown here)

CK2α/CK2β-RAD complex = target: T5, CK2α/CK2β-RAD complex (Homo sapiens, UniProt P68400, K74A/K75A/K76A/R21S); experiment: Competition Bio-Layer Interferometry (BLI): formation of the CK2α/CK2β-RAD complex; format: binding; details: biotin-labelled CK2β-RAD 50 nM on streptavidin sensors, CK2α 50 nM, 20mM TRIS pH 8.0, 350mM NaCl, 0.5% Tween, average of 4 repeats, SEM, read-out: IC50, prevention of formation of the CK2α/CK2β-RAD complex
T5 construct: CK2α_KA (residues 2 -329) contained four; His6 (N, cleaved yes); made in house; host or cells: Escherichia coli BL21(DE3)
T5 sequence (P68400 2-329 R21S/K74A/K75A/K76A): T1 sequence (P68400 2-329 R21S/K74A/K75A/K76A)
Procedure: Octet RED96 (ForteBio) instrument was used for BLI analysis of biotin-labelled CK2β-RAD/CAM7117 interactions. Experiments were performed using SA-Streptavidin biosensors (ForteBio), which were regenerated with 10mM glycine, pH 1.7. 20mM TRIS pH 8.0, 350mM NaCl, 0.5% Tween was used as the assay buffer. For binding assays pre-wet sensors were loaded with biotin labelled CK2β-RAD protein at 50 nM in assay buffer. CK2α K74A was prepared at 50 nM in assay buffer and dilution series (from 0 to 10 μM) of CAM7117 were prepared in the assay buffer. The following experimental setup was used for each measurement cycle: regeneration 3× 5s, baseline 120s, sample loading (CK2β-RAD) 200s, baseline 120s (assay buffer), control loading 200s (RAD), baseline 150s (assay buffer), ligand binding (association) 400s (CK2α K74A and CAM7117) and ligand dissociation 600s (assay buffer), followed by regeneration and next cycles. During the control loading stage all […]
Regenerated SA-Streptavidin biosensors loaded with biotin labelled RAD were used to perform referencing. Data was processed using ForteBio Analysis 7.1 software and IC50 was calculated using GraphPad. The results are the average of 4 repeats and error shown as SEM. […]

U2OS cells [6] = format: cell-based, human
Procedure: as §2, §3, §4, §5, §6, §7, §8, §9, §10

CC(=O)NCC(=O)N[C@H]1Cn2cc(nn2)-c2cc(C(=O)NCCCCCC(=O)NCCCCCC(=O)N[C@H](CCCNC(=N)N)C(=O)N[C@H](CCCNC(=N)N)C(=O)N[C@H](CCCNC(=N)N)C(N)=O)cc(c2)-c2cn(nn2)C[C@@H](C(=O)NCC(=O)NCC(N)=O)NC(=O)[C@H](Cc2c[nH]cn2)NC(=O)[C@H](Cc2c[nH]c3ccccc23)NC(=O)[C@H](CCCCN)NC(=O)[C@H](Cc2ccccc2)NC(=O)CNC(=O)[C@H](Cc2ccc(O)cc2)NC(=O)[C@H](CC(C)C)NC(=O)[C@H](CCCNC(=N)N)NC1=O [CAM7117]
GI50 (HCT116 cells): 76000 ± 4000 nM
GI50 (U2OS cells [1]): 32000 ± 2000 nM
Nuclear localisation of CK2β after treatment [2]: little or no fluorescence associated with the CK2β antibody was found in the nucleus
Induction of apoptosis (U2OS cells [3]): induced apoptosis
Kd (CK2α [4]): 200 nM

C#Cc1cc(C#C)cc(C(=O)NCCCCCC(=O)NCCCCCC(=O)N[C@H](CCCNC(=N)N)C(=O)N[C@H](CCCNC(=N)N)C(=O)N[C@H](CCCNC(=N)N)C(N)=O)c1 [F1C4]
Biological effects in cancer cells (U2OS and HCT116 cells): No biological effects

CC(=O)NCC(=O)N[C@H]1Cn2cc(nn2)-c2cc(C(=O)O)cc(c2)-c2cn(nn2)C[C@@H](C(=O)NCC(=O)NCC(N)=O)NC(=O)[C@H](Cc2c[nH]cn2)NC(=O)[C@H](Cc2c[nH]c3ccccc23)NC(=O)[C@H](CCCCN)NC(=O)[C@H](Cc2ccccc2)NC(=O)CNC(=O)[C@H](Cc2ccc(O)cc2)NC(=O)[C@H](CC(C)C)NC(=O)[C@H](CCCNC(=N)N)NC1=O [P2-C4]
IC50 (CK2α/β holoenzyme): 206 ± 29 nM
Effect on phosphorylation of a β-independent substrate peptide (RRRADDSDDDD) (CK2α [5]): did not affect the phosphorylation
Binding of CK2β to CK2α in the presence of peptide (CK2α/CK2β interaction): no binding of CK2β to CK2α was detected
Improvement in Kd of the constrained peptide compared to the linear variant P2 (CK2α [4]; ITC Kd, P2-C4 vs P2): 300 fold
Kd (CK2α [4]): 150 nM
IC50 (CK2α/CK2β-RAD complex): 150 ± 19 nM

GXF2C4RLYGFKWHXF2C4GG (sidechain bridge or staple) [P2-F2C4, FITC-labelled analogue of CAM7117]
Cellular uptake / cell permeability (U2OS cells [6]): successfully internalised
